This is an account of results in PubChem BioAssay (NCI).

Test systems include SW-620 colon; NCI-H23 lung; HCT-15 colon; SR leukemia; SNB-75 CNS; HS 578T breast; SF-268 CNS; PC-3 prostate; HCC-2998 colon; KM12 colon; OVCAR-3 ovarian; MCF7 breast; RXF 393 renal; DU-145 prostate; NCI-H460 lung; UO-31 renal; EKVX NSCLC; HT29 colon; MALME-3M melanoma; SF-539 CNS.
Test in all cases: NCI tumour cell line growth inhibition, 48 h

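1) Cells in 96-well plates. 2) Compound, 48 h, 5 concentrations. 3) Linear interpolation between surrounding doses. 4) Unreached endpoint = highest concentration. TGI marks complete inhibition of growth.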

`CON(C)C(=O)[C@H]1C[C@@]1(C)CO`: the TGI in the assay with SW-620 colon, in the assay on NCI-H23 lung, in the assay on HCT-15 colon, in the assay with SR leukemia, in the assay with SNB-75 CNS and in the assay on HS 578T breast was above 100 µM each time. The TGI in the assay on SF-268 CNS, in the assay on PC-3 prostate, in the assay on HCC-2998 colon, in the assay with KM12 colon, with OVCAR-3 ovarian and in the assay with MCF7 breast was above 100 µM each time. Besides, the TGI in the assay with RXF 393 renal, in the assay with DU-145 prostate, in the assay on NCI-H460 lung, with UO-31 renal, in the assay on EKVX NSCLC and in the assay with HT29 colon was above 100 µM throughout. Further, in the assay with MALME-3M melanoma, the TGI is above 100 µM.

`C=C1C[C@@H]2O[C@H]3[C@H]4[C@@H](C[C@@H](C)[C@@H](OC(C)=O)[C@H]42)[C@@H](C)CO[C@@]3(C)[C@H](OC(=O)CCCCCCC)C[C@H]1O`: the TGI with SW-620 colon came to 40.3 µM; in the assay on NCI-H23 lung it was 40.2 µM; in the assay on HCT-15 colon, 30.4 µM; in the assay on SR leukemia, 36.3 µM; in the assay on SNB-75 CNS, 32.6 µM; with HS 578T breast it was 36.4 µM. Besides, the TGI in the assay with SF-268 CNS amounted to 31.1 µM; with PC-3 prostate it was 28.7 µM; in the assay on HCC-2998 colon it was 30.9 µM; in the assay with KM12 colon, 31.5 µM; in the assay on OVCAR-3 ovarian it was 37.2 µM; in the assay with MCF7 breast, 40.4 µM. For the same compound, the TGI was 36.1 µM in the assay with RXF 393 renal; 28.3 µM in the assay on DU-145 prostate; 30.1 µM with NCI-H460 lung; 29.7 µM with UO-31 renal; 40.5 µM in the assay on SF-539 CNS; 31 µM in the assay on EKVX NSCLC. The same compound gave a TGI with HT29 colon of 46.2 µM.

`O/N=C(/CC(O)(C(F)(F)F)C(F)(F)F)c1ccccc1`: the TGI with SW-620 colon, in the assay with NCI-H23 lung, in the assay on HCT-15 colon, in the assay on SR leukemia, in the assay on SNB-75 CNS and in the assay on HS 578T breast was above 10 µM throughout. Further, the TGI in the assay on SF-268 CNS, in the assay with PC-3 prostate, in the assay on HCC-2998 colon, with KM12 colon, with OVCAR-3 ovarian and with MCF7 breast was above 10 µM in each case. Besides, the TGI in the assay with RXF 393 renal, in the assay with DU-145 prostate, in the assay with NCI-H460 lung, with SF-539 CNS, in the assay on EKVX NSCLC and in the assay with HT29 colon was above 10 µM throughout. Moreover, in the assay with MALME-3M melanoma, the TGI was above 10 µM.

As for `N#Cc1ccc(-c2nc3c(N)nc(-c4ccccc4)nc3o2)cc1`, the TGI in the assay on SW-620 colon, with NCI-H23 lung, in the assay on HCT-15 colon, in the assay on SR leukemia, with SNB-75 CNS and with HS 578T breast was above 100 µM in each case. Further, the TGI with SF-268 CNS, with PC-3 prostate, with HCC-2998 colon, with KM12 colon, with OVCAR-3 ovarian and in the assay on MCF7 breast was above 100 µM each time. Also, the TGI was above 100 µM with RXF 393 renal; above 100 µM in the assay on DU-145 prostate; above 100 µM in the assay with NCI-H460 lung; above 100 µM with UO-31 renal; 22.3 µM in the assay on SF-539 CNS; above 100 µM in the assay on EKVX NSCLC. This compound registered a TGI in the assay with HT29 colon above 100 µM.

Regarding `COc1ccc2c(C)c(Oc3c(Cl)c(Cl)c(O)c(C#N)c3C#N)oc2c1`, the TGI with SW-620 colon, with NCI-H23 lung, in the assay with HCT-15 colon, in the assay on SR leukemia, in the assay on SNB-75 CNS and with HS 578T breast was above 100 µM in each case. In addition, the TGI in the assay with SF-268 CNS, in the assay with PC-3 prostate, in the assay on HCC-2998 colon, in the assay on KM12 colon, in the assay with OVCAR-3 ovarian and in the assay with MCF7 breast was above 100 µM each time. The TGI in the assay on DU-145 prostate, in the assay on NCI-H460 lung, in the assay on UO-31 renal, in the assay with SF-539 CNS, in the assay with EKVX NSCLC and with HT29 colon was above 100 µM throughout. The TGI with MALME-3M melanoma was above 100 µM.

With `CC(C)(C)C1CCC2c3c([nH]c4ccccc34)C3C(=O)N(c4ccccc4[N+](=O)[O-])C(=O)C3C2C1` (stereo not given), the TGI in the assay on SW-620 colon is 27 µM; in the assay with NCI-H23 lung, 22.1 µM; in the assay with HCT-15 colon it was 37.6 µM; in the assay with SR leukemia it was above 100 µM; in the assay on HS 578T breast it was 49.5 µM; with PC-3 prostate, 26.1 µM. Moreover, the TGI amounted to 18.2 µM in the assay on HCC-2998 colon; 28.6 µM in the assay on OVCAR-3 ovarian; 39.1 µM in the assay with MCF7 breast; 19 µM in the assay on RXF 393 renal; 22.4 µM in the assay on DU-145 prostate; 27.6 µM with NCI-H460 lung. Moreover, the TGI with UO-31 renal is above 100 µM; in the assay with SF-539 CNS, 61.3 µM; in the assay on EKVX NSCLC, 44.7 µM; in the assay with HT29 colon it was 20.1 µM; in the assay on MALME-3M melanoma, 43 µM.

Consider `CCOC(=O)CC1(Cc2ccc(OCc3ccccc3)cc2)C(=O)OC(c2ccccc2)N1C(=O)c1ccccc1` (stereo not given), for which the TGI in the assay with SW-620 colon, with NCI-H23 lung, in the assay on HCT-15 colon, with SR leukemia, with HS 578T breast and with SF-268 CNS was above 100 µM throughout. Also, the TGI in the assay with PC-3 prostate was above 100 µM; with HCC-2998 colon it was 84.7 µM; in the assay on KM12 colon, above 100 µM; in the assay on OVCAR-3 ovarian, above 100 µM; in the assay on MCF7 breast, above 100 µM; in the assay on RXF 393 renal it was above 100 µM. Moreover, the TGI with DU-145 prostate is above 100 µM; in the assay with NCI-H460 lung, 62.1 µM; in the assay with UO-31 renal, above 100 µM; in the assay with SF-539 CNS it was above 100 µM; in the assay on EKVX NSCLC, above 100 µM; in the assay with HT29 colon, above 100 µM. The compound also yielded a TGI in the assay on MALME-3M melanoma above 100 µM.

On to `CC1(C)C2CCC1(C)C(OC(=O)/C=C/C(=O)OC1CC3CCC1(C)C3(C)C)C2` (stereo not given), for which the TGI in the assay on SW-620 colon was above 100 µM; in the assay on NCI-H23 lung it was above 100 µM; in the assay on HCT-15 colon it was above 100 µM; with SR leukemia, 55.7 µM; in the assay with SNB-75 CNS, 86.6 µM; in the assay on HS 578T breast, above 100 µM. In addition, the TGI in the assay on SF-268 CNS was above 100 µM; in the assay with PC-3 prostate, above 100 µM; in the assay with HCC-2998 colon, above 100 µM; with KM12 colon, above 100 µM; in the assay on OVCAR-3 ovarian, above 100 µM; in the assay on MCF7 breast, 67.4 µM. Further, the TGI with RXF 393 renal, with DU-145 prostate, in the assay on NCI-H460 lung, in the assay on UO-31 renal, in the assay with SF-539 CNS and with EKVX NSCLC was above 100 µM each time. The TGI in the assay with HT29 colon is above 100 µM.
